{
  "source": "the NIST ThermoML archive (doi:10.1016/j.jct.2017.11.009)",
  "note": "Numbers after ± are expanded uncertainties.",
  "data": [
    {"experiment": "Boiling temperature at pressure P", "conditions": "101.3 kPa; Liquid; Ebulliometric method (Recirculating still)", "units": {"Boiling temperature at pressure P": "°C"}, "values": [
      {"smiles": "OCCO", "note": "[1,2-ethanediol]", "Boiling temperature at pressure P": "197.17 ± 0.4"},
      {"smiles": "C=CCO", "note": "[2-propenol]", "Boiling temperature at pressure P": "96.80 ± 0.4"},
      {"smiles": "CNC=O", "note": "[N-methylformamide]", "Boiling temperature at pressure P": "199.10 ± 0.4"},
      {"smiles": "CN1CCCC1=O", "note": "[N-methylpyrrolidone]", "Boiling temperature at pressure P": "202.29 ± 0.4"}
    ]}
  ]
}
